{"source": "patent US20040029153A1", "about": "“Method for estimating metabolic function of xenobiotic and induction thereof” (priority 2000, published 2004)", "key": {"CYP1A": {"test_system": "CYP1A", "assay": "Induction of ethoxyresorfin dealkylation activity in primary human hepatocytes", "format": "in vitro ADME", "conditions": "HH-110", "description": "After the culture medium was completely removed from the culture plate, Lanford's medium (1 mL) containing 8 μmol/L of 7-ethoxyresorfin and 10 μmol/L of dicumarol was added to each well, and the plate was incubated for 30 minutes in the CO2 incubator to allow reaction. Whole volume of each reaction was recovered and stored at −80° C. until measurement. The cells were washed twice with Lanford's medium, and maintained in the CO2 incubator again or directly used as a sample for another test.\nThe stored reactions were thawed, and accurately 75 μL of each reaction was removed and mixed with 0.1 mol/L of acetate-sodium acetate buffer (pH 4.4, 25 μL) containing 15 Fishman units of β-glucuronidase [EC 3.2.1.31] and 120 Roy units of sulfatase [EC 3.1.6.1], followed by conjugation reaction for two hours at 37° C. Ethanol (200 μL) was added to the reaction and subjected to centrifugation. The supernatant (200 μL) was transferred to a 96-well microtiter plate. Microplate reader (Labsystems, Fluoroscan Ascent) was used to measure the fluorescence intensity at the wavelength of 590 nm when excited with excitation light at the wavelength of 544 nm. The resorfin production figured out from the result was used to measure the ethoxyresorfin dealkylation activity.\nThe cells maintained under the conditions considered optimal in Examples 8 and 9 were continued to be added with 1 μmol/L of 3-methylcholanthrene for three days, and the changes in ethoxyresorfin dealkylation activity was investigated. HH-110 cells were used.\nPrimary human hepatocytes (HH-110) were continued to be loaded with 1 μmol/L of 3-methylcholanthrene for three days between days 4th to 7th post seeding (indicated by a crossbar in the figure), and these cells had been maintained further for five days again in the conventional Lanford's medium. During this period, measurement of ethoxyresorfin dealkylation activity was conducted at 8 times to investigate the changes in the activity. Three samples per condition were measured independently, and the mean values are shown. The standard deviations are indicated by error bar. […]"}, "[1]": {"test_system": "primary human hepatocytes", "assay": "Ethoxycoumarin dealkylation and coumarin conjugation activities in primary human hepatocytes", "format": "in vitro ADME", "conditions": "HH-110 and HH-118; benz[a]anthracene 5 μmol/L, 3-methylcholanthrene 2 μmol/L; one day and night", "description": "Lanford's medium (1 mL) containing 75 μmol/L of 7-ethoxycoumarin was added to each well after the culture medium was removed, and the plate was incubated for two hours in the CO2 incubator to allow reaction. Whole volume of each reaction was recovered and stored at −80° C. until measurement. The cells were washed twice with Lanford's medium, and maintained in the CO2 incubator again or directly used as a sample for another test. The stored reactions were thawed, and 50 μl of the reaction was analyzed by liquid chromatography, ethoxycoumarin dealkylation activity and glucuronate and sulfate conjugation activities were comprehensively estimated based on the production of 7-hydroxycoumarin, 7-hydroxycoumarin glucuronide and 7-hydroxycoumarin sulfate. Herein, 7-ethoxycoumarin is converted to 7-hydroxycoumarin after dealkylation, and then conjugated by glucuronate and sulfate.\nThe cells maintained under the conditions considered optimal in Examples 8 and 9 were continued to be added with 5 μmol/L of benz[a]anthracene or 2 μmol/L of 3-methylcholanthrene one day and night, and then the changes in ethoxycoumarin dealkylation activity was investigated. HH-110 and HH-118 cells were used.\nThree samples per each condition i.e., control (Lane 1), adding of 3-methylcholanthrene (Lane 2) and benz[a]anthracene (Lane 3) which were measured independently, and the mean values are shown. […]"}, "CYP1A1/2": {"test_system": "CYP1A1/2", "assay": "Western blotting of CYP1A protein in cryopreserved primary human hepatocytes", "conditions": "HH-110 and HH-118; 3-methylcholanthrene 2 μmol/L, benz[a]anthracene 5 μmol/L; one day and night; vs control"}, "CYP3A mRNA": {"test_system": "CYP3A mRNA", "conditions": "hepatocytes"}, "CYP3A": {"test_system": "CYP3A", "assay": "Induction of testosterone hydroxylation activity in primary human hepatocytes"}, "[2]": {"test_system": "primary human hepatocytes", "assay": "Effect of culture medium components on rifampicin induction of testosterone hydroxylation activity", "format": "cell-based"}, "CYP3A4": {"test_system": "CYP3A4", "description": "The cells in the suspension were seeded in a 12-well culture plate coated with collagen at the density of 6×10^5 cells/well, and the plate was incubated one day and night in the CO2 incubator. Subsequently, the culture medium containing 10% fetal bovine serum was removed, 1 ml of fresh serum-free Lanford's medium was added to each well, and the cells were maintained in the CO2 incubator. The inside of the CO2 incubator used in the present invention was maintained at 37° C. in an atmosphere of 5% […] saturated with vapor.\n10 μl of the sample was electrophoresed on polyacrylamide gel, and blotted onto PVDF transfer membrane."}}, "note": "Read-outs that look alike come from different tables or passages of the source.", "data": [{"molecule": "Cc1ccc2cc3c(ccc4ccccc43)c3c2c1CC3", "note": "[3-methylcholanthrene]", "values": [{"measurement": "ethoxyresorfin dealkylation activity during continued addition", "setting": "CYP1A; 1 μmol/L, added for three days", "value": "gradually decreased"}, {"measurement": "time of maximum ethoxyresorfin dealkylation activity", "setting": "CYP1A; 1 μmol/L, added for three days", "value": "one day after 3-methylcholanthrene was added"}, {"measurement": "ethoxyresorfin dealkylation activity after addition was stopped", "setting": "CYP1A; after three days of 1 μmol/L", "value": "returned to their original state prior to the addition of the compounds in a day"}, {"measurement": "production of 7-hydroxycoumarin, 7-hydroxycoumarin glucronide and 7-hydroxycoumarin sulfate", "setting": "[1]", "value": "increases"}, {"measurement": "CYP1A1/2 expression (western blotting)", "setting": "CYP1A1/2", "value": "increased"}]}, {"molecule": "c1ccc2cc3c(ccc4ccccc43)cc2c1", "note": "[benz[a]anthracene]", "values": [{"measurement": "production of 7-hydroxycoumarin, 7-hydroxycoumarin glucronide and 7-hydroxycoumarin sulfate", "setting": "[1]", "value": "increases"}, {"measurement": "CYP1A1/2 expression (western blotting)", "setting": "CYP1A1/2", "value": "increased"}]}, {"molecule": "Clc1ccccc1C(c1ccccc1)(c1ccccc1)n1ccnc1", "note": "[clotrimazole]", "values": [{"measurement": "CYP3A mRNA level, concentration-dependence of induction", "setting": "CYP3A mRNA", "value": "increase of the mRNA level was observed"}, {"measurement": "testosterone hydroxylation activity, concentration-dependence of induction", "setting": "CYP3A; HH-110, different concentrations", "value": "increase of the testosterone hydroxylation activity was not observed"}]}, {"molecule": "C[C@]12CCC(=O)C=C1CC[C@@H]1[C@@H]2[C@@H](O)C[C@@]2(C)[C@H]1CC[C@]2(O)C(=O)CO", "note": "[hydrocortisone]", "values": [{"measurement": "effect of medium component on maintenance of testosterone hydroxylation activity", "setting": "[2]; HH-110, hydrocortisone-free vs conventional Landford's medium", "value": "essential"}]}, {"molecule": "CCC1(c2ccccc2)C(=O)NC(=O)NC1=O", "note": "[phenobarbital]", "values": [{"measurement": "CYP3A4 expression (western blotting)", "setting": "CYP3A4", "value": "not marked"}, {"measurement": "CYP 3A mRNA (CYP3A/β-actin)", "setting": "CYP3A mRNA", "value": "Increases"}, {"measurement": "day of maximum testosterone hydroxylation activity after addition", "setting": "CYP3A; HH-110, rifampicin 10 μmol/L, phenobarbital 1 mmol/L, loaded for four days", "value": 4, "unit": "days"}, {"measurement": "testosterone hydroxylation activity", "setting": "CYP3A; five donors (HH-018, HH-022, HH-029, HH-110, HH-118), rifampicin 10 μmol/L, phenobarbital 1 mmol/L, four days", "value": "Increases"}]}, {"molecule": "C[C@]12C=CC(=O)C=C1CC[C@@H]1[C@@H]2[C@@H](O)C[C@@]2(C)[C@H]1CC[C@]2(O)C(=O)CO", "note": "[predonisolone]", "values": [{"measurement": "induction of testosterone hydroxylation activity with glucocorticoid instead of hydrocortisone in medium", "setting": "[2]; HH-110, 1 μmol/L in medium, rifampicin 10 μmol/L for three days", "value": "can be observed"}]}, {"molecule": "cholera toxin", "values": [{"measurement": "effect of medium component on induction of testosterone hydroxylation activity", "setting": "[2]", "value": "enhancing factors"}]}, {"molecule": "Prolactin: component of Landford's medium (protein, UniProt P01239 31-229, looked up) Prolactin: TPVCPNGPGNCQVSLRDLFDRAVMVSHYIHDLSSEMFNEFDKRYAQGKGFITMALNSCHTSSLPTPEDKEQAQQTHHEVLMSLILGLLRSWNDPLYHLVTEVRGMKGAPDAILSRAIEIEEENKRLLEGMEMIFGQVIPGAKETEPYPVWSGLPSLQTKDEDARYSAFYNLLHCLRRDSSKIDTYLKLLNCRIIYNNNC", "values": [{"measurement": "effect of medium component on induction of testosterone hydroxylation activity", "setting": "[2]; HH-110, component-free vs conventional Landford's medium, induction by rifampicin", "value": "enhancing factors"}]}]}
